Results: ChEMBL document CHEMBL3046322, “Insect growth regulatory effects by diterpenes from Calceolaria talcana Grau & Ehrhart (Calceolariaceae: Scrophulariaceae) against Spodoptera frugiperda and Drosophila melanogaster” (2013)
The source made the active and inactive calls. The rule behind the calls is not given here.

Tests used:
Spodoptera frugiperda [1] = test: Insecticidal activity against first-instar larval stage of Spodoptera frugiperda (fall armyworm) fed with compound incorporated diet assessed as mortality at 5 ug/ml after 21 days (reference value: 5.6%); assay type: functional; conditions: 504 h
Spodoptera frugiperda [2] = test: Growth inhibitory activity against Spodoptera frugiperda (fall armyworm) larvae fed with compound containing diet assessed as relative growth index at 35 ug/ml (reference value: 1.0 no_unit); assay type: functional
Spodoptera frugiperda [3] = test: Growth inhibitory activity against first-instar larval stage of Spodoptera frugiperda (fall armyworm) fed with compound incorporated diet assessed as length gained at 5 ug/ml after 21 days (reference value: 100%); assay type: functional
Spodoptera frugiperda [4] = test: Growth inhibitory activity against Spodoptera frugiperda (fall armyworm) larvae fed with compound containing diet assessed as growth index at 35 ug/ml (reference value: 0.95 +/-0.02 no_unit); assay type: functional
Spodoptera frugiperda [5] = test: Growth inhibitory activity against first-instar larval stage of Spodoptera frugiperda (fall armyworm) fed with compound incorporated diet assessed as weight gained at 10 ug/ml after 21 days (reference value: 100%); assay type: functional
Spodoptera frugiperda [6] = test: Insecticidal activity against first-instar larval stage of Spodoptera frugiperda (fall armyworm) fed with compound incorporated diet assessed as mortality at 50 to 100 ug/ml after 7 days; assay type: functional
Spodoptera frugiperda [7] = test: Growth inhibitory activity against first-instar larval stage of Spodoptera frugiperda (fall armyworm) fed with compound incorporated diet assessed as weight gained at 35 ug/ml after 7 days (reference value: 100%); assay type: functional; parameters: scale not given: the % may be the effect or the level left
Spodoptera frugiperda [8] = test: Growth inhibitory activity against first-instar larval stage of Spodoptera frugiperda (fall armyworm) fed with compound incorporated diet assessed as length gained at 10 ug/ml after 7 days (reference value: 100%); assay type: functional
Spodoptera frugiperda [9] = test: Insecticidal activity against first-instar larval stage of Spodoptera frugiperda (fall armyworm) fed with compound incorporated diet assessed as mortality at 5 ug/ml after 7 days (reference value: 5.6%); assay type: functional; conditions: 168 h
Spodoptera frugiperda [10] = test: Growth inhibitory activity against Spodoptera frugiperda (fall armyworm) larvae fed with compound containing diet assessed as reduction in adult emergence at 20 ug/ml; assay type: functional
Spodoptera frugiperda [11] = test: Growth inhibitory activity against po dosed Spodoptera frugiperda (fall armyworm) larvae assessed as promotion of apolysis to fifth instar with ecdysis inhibition at 5 to 20 ug/ml; assay type: functional, organism-based
Spodoptera frugiperda [12] = test: Growth inhibitory activity against first-instar larval stage of Spodoptera frugiperda (fall armyworm) fed with compound incorporated diet assessed as weight gained at 20 ug/ml after 21 days (reference value: 100%); assay type: functional
Spodoptera frugiperda [13] = test: Insecticidal activity against first-instar larval stage of Spodoptera frugiperda (fall armyworm) fed with compound incorporated diet assessed as mortality at 10 ug/ml after 7 days (reference value: 5.6%); assay type: functional; conditions: 168 h
Spodoptera frugiperda [14] = test: Growth inhibitory activity against first-instar larval stage of Spodoptera frugiperda (fall armyworm) fed with compound incorporated diet assessed as length gained at 50 ug/ml after 21 days (reference value: 100%); assay type: functional
Spodoptera frugiperda [15] = test: Growth inhibitory activity against Spodoptera frugiperda (fall armyworm) larvae fed with compound containing diet assessed as relative growth index at 10 ug/ml (reference value: 1.0 no_unit); assay type: functional
Spodoptera frugiperda [16] = test: Acute toxicity against last larval stage of Spodoptera frugiperda (fall armyworm) assessed as survival at 10 ug/ml applied topically onto abdomen measured after 24 hr (reference value: 98.8 +/-3.5%); assay type: functional
Spodoptera frugiperda [17] = test: Growth inhibitory activity against Spodoptera frugiperda (fall armyworm) larvae fed with compound containing diet assessed as relative growth index at 5 ug/ml (reference value: 1.0 no_unit); assay type: functional
Spodoptera frugiperda [18] = test: Growth inhibitory activity against first-instar larval stage of Spodoptera frugiperda (fall armyworm) fed with compound incorporated diet assessed as length gained at 20 ug/ml after 21 days (reference value: 100%); assay type: functional; parameters: scale not given: the % may be the effect or the level left
Spodoptera frugiperda [19] = test: Growth inhibitory activity against first-instar larval stage of Spodoptera frugiperda (fall armyworm) fed with compound incorporated diet assessed as length gained at 35 ug/ml after 7 days (reference value: 100%); assay type: functional
Spodoptera frugiperda [20] = test: Growth inhibitory activity against first-instar larval stage of Spodoptera frugiperda (fall armyworm) fed with compound incorporated diet assessed as length gained at 5 ug/ml after 7 days (reference value: 100%); assay type: functional; parameters: scale not given: the % may be the effect or the level left
Spodoptera frugiperda [21] = test: Growth inhibitory activity against Spodoptera frugiperda (fall armyworm) larvae fed with compound containing diet assessed as relative growth index at 20 ug/ml (reference value: 1.0 no_unit); assay type: functional
Drosophila melanogaster [22] = test: Insecticidal activity against Drosophila melanogaster larvae fed with compound incorporated diet assessed as mortality at 10 ug/ml after 72 hr by not choice test (reference value: 0%); assay type: functional
Spodoptera frugiperda [23] = test: Insecticidal activity against first-instar larval stage of Spodoptera frugiperda (fall armyworm) fed with compound incorporated diet assessed as mortality at 40 ug/ml after 7 days; assay type: functional, organism-based
Spodoptera frugiperda [24] = test: Growth inhibitory activity against first-instar larval stage of Spodoptera frugiperda (fall armyworm) fed with compound incorporated diet assessed as length gained at 20 ug/ml after 7 days (reference value: 100%); assay type: functional
Spodoptera frugiperda [25] = test: Insecticidal activity against first-instar larval stage of Spodoptera frugiperda (fall armyworm) fed with compound incorporated diet assessed as mortality at 50 ug/ml after 7 days (reference value: 5.6%); assay type: functional; conditions: 168 h
Drosophila melanogaster [26] = test: Insecticidal activity against Drosophila melanogaster larvae fed with compound incorporated diet assessed as mortality at 50 ug/ml after 72 hr by not choice test (reference value: 0%); assay type: functional
Spodoptera frugiperda [27] = test: Growth inhibitory activity against first-instar larval stage of Spodoptera frugiperda (fall armyworm) fed with compound incorporated diet assessed as length gained at 10 ug/ml after 21 days (reference value: 100%); assay type: functional
Spodoptera frugiperda [28] = test: Growth inhibitory activity against Spodoptera frugiperda (fall armyworm) larvae fed with compound containing diet assessed as growth index at 10 ug/ml (reference value: 0.95 +/-0.02 no_unit); assay type: functional
Spodoptera frugiperda [29] = test: Growth inhibitory activity against first-instar larval stage of Spodoptera frugiperda (fall armyworm) fed with compound incorporated diet assessed as length gained at 50 ug/ml after 7 days (reference value: 100%); assay type: functional
Spodoptera frugiperda [30] = test: Insecticidal activity against first-instar larval stage of Spodoptera frugiperda (fall armyworm) fed with compound incorporated diet assessed as mortality at 35 ug/ml after 7 days (reference value: 5.6%); assay type: functional; conditions: 168 h
Spodoptera frugiperda [31] = test: Growth inhibitory activity against first-instar larval stage of Spodoptera frugiperda (fall armyworm) fed with compound incorporated diet assessed as weight gained at 20 ug/ml after 7 days (reference value: 100%); assay type: functional; parameters: scale not given: the % may be the effect or the level left
Spodoptera frugiperda [32] = test: Growth inhibitory activity against Spodoptera frugiperda (fall armyworm) larvae fed with compound containing diet assessed as growth index at 20 ug/ml (reference value: 0.95 +/-0.02 no_unit); assay type: functional
Spodoptera frugiperda [33] = test: Insecticidal activity against first-instar larval stage of Spodoptera frugiperda (fall armyworm) fed with compound incorporated diet assessed as mortality at 10 ug/ml after 21 days (reference value: 5.6%); assay type: functional; conditions: 504 h
Spodoptera frugiperda [34] = test: Growth inhibitory activity against first-instar larval stage of Spodoptera frugiperda (fall armyworm) fed with compound incorporated diet assessed as weight gained at 5 ug/ml after 21 days (reference value: 100%); assay type: functional
Spodoptera frugiperda [35] = test: Growth inhibitory activity against Spodoptera frugiperda (fall armyworm) larvae fed with compound containing diet assessed as reduction in survival pupation at >10 ug/ml; assay type: functional
Spodoptera frugiperda [36] = test: Growth inhibitory activity against first-instar larval stage of Spodoptera frugiperda (fall armyworm) fed with compound incorporated diet assessed as weight gained at 50 ug/ml after 21 days (reference value: 100%); assay type: functional
Spodoptera frugiperda [37] = test: Growth inhibitory activity against po dosed fourth-instar larvae of Spodoptera frugiperda (fall armyworm) assessed as proportion of prothetely appearance of precocious pupal structure in larvae after 48 to 72 hr; assay type: functional; parameters: scale not given: the % may be the effect or the level left

## C=CC(C)(C)C1=C(O)C(=O)c2ccccc2C1=O
Spodoptera frugiperda [1]
  mortality at 5 µg/mL: 66.7%
Spodoptera frugiperda [2]
  Growth_index: 0.1
Spodoptera frugiperda [3]
  Length gained (% of control): 64.3%
Spodoptera frugiperda [4]
  Growth_index: 0.09
Spodoptera frugiperda [5]
  Weight gain (% of control): 27.7%
Spodoptera frugiperda [6]
  mortality: 100%
Spodoptera frugiperda [7]
  Activity: 5%
Spodoptera frugiperda [8]
  Larval length gained (% of control): 24.2%
Spodoptera frugiperda [9]
  mortality at 5 µg/mL: 41.7%
Spodoptera frugiperda [10]
  inhibition at 20 µg/mL: 0%
Spodoptera frugiperda [11]
  Activity: Active
Spodoptera frugiperda [12]
  Weight gain relative to control: 9%
Spodoptera frugiperda [13]
  mortality at 10 µg/mL: 83.3%
Spodoptera frugiperda [14]
  Length gained (% of control): 0%
Spodoptera frugiperda [15]
  Growth_index: 0.45
Spodoptera frugiperda [16]
  Activity: 6.8%
Spodoptera frugiperda [17]
  Growth_index: 0.69
Spodoptera frugiperda [18]
  Activity: 4.1%
Spodoptera frugiperda [19]
  Length gained relative to control: 10%
Spodoptera frugiperda [20]
  Activity: 50.8%
Spodoptera frugiperda [21]
  Growth_index: 0.12
Drosophila melanogaster [22]
  mortality at 10 µg/mL: 30%
Spodoptera frugiperda [23]
  mortality: Active
Spodoptera frugiperda [24]
  Length gained relative to control: 20.8%
Spodoptera frugiperda [25]
  mortality at 50 µg/mL: 100%
Drosophila melanogaster [26]
  mortality at 50 µg/mL: 100%
Spodoptera frugiperda [27]
  Length gained relative to control: 39.8%
Spodoptera frugiperda [28]
  Growth_index: 0.41
Spodoptera frugiperda [29]
  Length gain relative to control: 0%
Spodoptera frugiperda [30]
  mortality at 35 µg/mL: 95.8%
Spodoptera frugiperda [31]
  Activity: 15.9%
Spodoptera frugiperda [32]
  Growth_index: 0.12
Spodoptera frugiperda [33]
  mortality at 10 µg/mL: 41.7%
Spodoptera frugiperda [34]
  Larval weight gain relative to control: 35.6%
Spodoptera frugiperda [35]
  inhibition (INH): 0%
Spodoptera frugiperda [36]
  Weight gain relative to control: 0%
Spodoptera frugiperda [37]
  Activity: 30%
